From patent publication US12098145B2 (Libra Therapeutics, Inc., priority 2022, dated 2024)
Structures can show the parent of a compound that is named as a salt. Where two headings read alike, the source gives them in different places.

How the values were obtained:
[1] = biological target: T1, TRPML1 (Homo sapiens, UniProt Q9GZU1); assay: Cellular TRPML1 assay (FLIPR, GCaMP6f calcium read-out); format: cell-based; details: HEKT-REx/GCaMP6f/TRPML1 cells, FLIPR TETRA, kinetic response over 300 seconds; read-out: TRPML1 FLIPR pEC50 (converted)
T1 construct: expressed in transfected cells; host or cells: HEK T-REx cells stably expressing GCaMP6f and TRPML1
T1 sequence (Q9GZU1 whole entry): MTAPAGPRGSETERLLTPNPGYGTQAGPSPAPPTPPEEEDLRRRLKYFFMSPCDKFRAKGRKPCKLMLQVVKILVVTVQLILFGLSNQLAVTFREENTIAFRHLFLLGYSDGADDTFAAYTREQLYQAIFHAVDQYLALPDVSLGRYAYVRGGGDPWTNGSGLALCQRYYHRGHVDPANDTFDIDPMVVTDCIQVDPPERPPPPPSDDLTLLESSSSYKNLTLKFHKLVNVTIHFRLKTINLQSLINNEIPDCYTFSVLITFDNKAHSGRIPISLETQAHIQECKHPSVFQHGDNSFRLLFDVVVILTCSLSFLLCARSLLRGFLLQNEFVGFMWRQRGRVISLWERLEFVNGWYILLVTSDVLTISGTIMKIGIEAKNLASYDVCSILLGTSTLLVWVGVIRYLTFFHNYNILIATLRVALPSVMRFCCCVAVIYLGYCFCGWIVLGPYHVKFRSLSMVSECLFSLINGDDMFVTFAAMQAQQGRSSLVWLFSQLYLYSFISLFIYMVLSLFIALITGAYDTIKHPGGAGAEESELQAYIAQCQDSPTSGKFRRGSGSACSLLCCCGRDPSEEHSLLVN
Outline: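 Read-out is GCaMP6f fluorescence over 300 s after compound addition in Ca2+-free Tyrode's buffer, final DMSO 0.5%, on FLIPR Tetra. Cells are HEK T-REx stably co-expressing the indicator and TRPML1, plated 24 h earlier in Optimem + 0.5% FBS and pre-incubated ~10 min at room temperature.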

[2] = test system: TFEB; assay: TFEB translocation assay (TFEB reporter in U2OS cells, imaging); format: cell-based; details: Homo sapiens, read-out: TFEB Translocation pEC50 (converted)
Outline: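 Activity expresses the mean nuclear-to-cytosolic reporter ratio scaled between DMSO (0%) and Torin-1 (100%) controls. Read-out came from high-content imaging of fixed, Hoechst-counterstained U2OS cells carrying mRFP-tagged TFEB after 2 h compound exposure at 37 °C in Opti-MEM with 0.015% Tween 80 and 0.5% DMSO.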

[3] = U2OS cell line with TFEB reporter, 2 hours incubation, nucleus to cytoplasm ratio, normalized to Torin-1

Row | Compound | EC50 [1] [µM] | EC50 [2, 3] [µM] | EC50 ([2]; U2OS, 2 h) [µM]
1 | COCc1oc(N2CC(C)(CO)C2)nc1C(=O)Nc1cc(C)c(OC2CC3CC(C3)C2)c(F)c1 (stereo not drawn) [Example 296, N-(4-(bicyclo[3.1.1]heptan-3-yloxy)-3-fluoro-5-methylphenyl)-2-(3-(hydroxymethyl)-3-methylazetidin-1-yl)-5-(methoxymethyl)oxazole-4-carboxamide] | 0.01 to 1 | 0.01 to 1 | –
2 | CCN(C)Cc1oc(N2CC(C)(OC)C2)nc1C(=O)Nc1cc(F)c(OC2CC3CC(C3)C2)c(F)c1 (stereo not drawn) [Example 307, N-(4-(bicyclo[3.1.1]heptan-3-yloxy)-3,5-difluorophenyl)-5-((ethyl(methyl)amino)methyl)-2-(3-methoxy-3-methylazetidin-1-yl)oxazole-4-carboxamide hydrochloride] | 0.01 to 1 | 0.01 to 1 | –
3 | O=C(Nc1cc(F)c(O[C@@H]2C[C@@H]3C[C@@H]3C2)c(F)c1)c1nc(N2CCCC2)oc1CN1CCCC1 [Example 308, N-(4-(cis-bicyclo[3.1.0]hexan-3-yloxy)-3,5-difluorophenyl)-2-(pyrrolidin-1-yl)-5-(pyrrolidin-1-ylmethyl)oxazole-4-carboxamide hydrochloride] | 0.01 to 1 | 0.01 to 1 | –
4 | CCN(C)Cc1oc(N2CC(CC)(OC)C2)nc1C(=O)Nc1cc(O)c(OC2CC3CC(C3)C2)c(F)c1 (stereo not drawn) [Example 309, N-(4-(bicyclo[3.1.1]heptan-3-yloxy)-3-fluoro-5-hydroxyphenyl)-5-((ethyl(methyl)amino)methyl)-2-(3-ethyl-3-methoxyazetidin-1-yl)oxazole-4-carboxamide] | 1 to 10 | – | 1 to 10
5 | O=C(Nc1cc(F)c2c(c1)CCN2C1CC2CC2C1)c1nc(N2CCCC2)oc1CC(F)(F)F (stereo not drawn) [Example 315, N-(1-(bicyclo[3.1.0]hexan-3-yl)-7-fluoroindolin-5-yl)-2-(pyrrolidin-1-yl)-5-(2,2,2-trifluoroethyl)oxazole-4-carboxamide] | 1 to 10 | 0.01 to 1 | –
6 | CCc1oc(N2CC(CC)(CC)C2)nc1C(=O)Nc1cc(F)c2c(c1)CCN2C1CC2CC2C1 (stereo not drawn) [Example 316, N-(1-(bicyclo[3.1.0]hexan-3-yl)-7-fluoroindolin-5-yl)-2-(3,3-diethylazetidin-1-yl)-5-ethyloxazole-4-carboxamide] | 0.01 to 1 | 0.01 to 1 | –

More lines, main results first:

Row | EC50 [1] [µM] | Compound | EC50 [2, 3] [µM] | EC50 ([2]; U2OS, 2 h) [µM]
7 | 0.01 to 1 | COCc1oc(N2CC(C)(OC)C2)nc1C(=O)Nc1cc(C)c(O[C@@H]2C[C@@H]3C[C@@H]3C2)c(F)c1 [Example 294, N-(4-(cis-bicyclo[3.1.0]hexan-3-yloxy)-3-fluoro-5-methylphenyl)-2-(3-methoxy-3-methylazetidin-1-yl)-5-(methoxymethyl)oxazole-4-carboxamide] | 0.01 to 1 | –
8 | 0.01 to 1 | CCC1(CC)CN(c2nc(C(=O)Nc3cc(F)c(OC4CC5C[C@H]5C4)c(F)c3)c(COC)o2)C1 (stereo partly drawn) [Example 295, N-(4-(cis-bicyclo[3.1.0]hexan-3-yloxy)-3,5-difluorophenyl)-2-(3,3-diethylazetidin-1-yl)-5-(methoxymethyl)oxazole-4-carboxamide] | 0.01 to 1 | –
9 | 0.01 to 1 | CCC1(CC)CN(c2nc(C(=O)Nc3cc(F)c(O[C@@H]4C[C@@H]5C[C@@H]5C4)c(F)c3)c(CN3CCCC3)o2)C1 [Example 299, N-(4-(cis-bicyclo[3.1.0]hexan-3-yloxy)-3,5-difluorophenyl)-2-(3,3-diethylazetidin-1-yl)-5-(pyrrolidin-1-ylmethyl)oxazole-4-carboxamide] | 0.01 to 1 | –
10 | 0.01 to 1 | CCN(C)Cc1oc(N2CC(CC)(OC)C2)nc1C(=O)Nc1cc(F)c(OC2CC3CC(C3)C2)c(F)c1 (stereo not drawn) [Example 302, N-(4-(bicyclo[3.1.1]heptan-3-yloxy)-3,5-difluorophenyl)-5-((ethyl(methyl)amino)methyl)-2-(3-ethyl-3-methoxyazetidin-1-yl)oxazole-4-carboxamide] | 0.01 to 1 | –
11 | 0.01 to 1 | CCC1(OC)CN(c2nc(C(=O)Nc3cc(F)c(O[C@@H]4C[C@@H]5C[C@@H]5C4)c(F)c3)c(CN(C)C)o2)C1 [Example 303, N-(4-(cis-bicyclo[3.1.0]hexan-3-yloxy)-3,5-difluorophenyl)-5-((dimethylamino)methyl)-2-(3-ethyl-3-methoxyazetidin-1-yl)oxazole-4-carboxamide] | 0.01 to 1 | –
12 | 0.01 to 1 | CCN(C)Cc1oc(N2CC(CC)(OC)C2)nc1C(=O)Nc1cc(F)c(O[C@@H]2C[C@@H]3C[C@@H]3C2)c(F)c1 [Example 304, N-(4-(cis-bicyclo[3.1.0]hexan-3-yloxy)-3,5-difluorophenyl)-5-((ethyl(methyl)amino)methyl)-2-(3-ethyl-3-methoxyazetidin-1-yl)oxazole-4-carboxamide] | 0.01 to 1 | –
